From the NIST ThermoML archive (doi:10.1016/j.jct.2015.01.004)
“And” between values parts separate entries of the source, which are not always exact repeats. Equal entries are not always repeated.

Assay: molar heat capacity at constant pressure; xn = mol fraction of the nth substance listed
Conditions: 100 kPa

[Si] [silicon] + [Li]
Conditions | molar heat capacity at constant pressure
12.56 K, Crystal of intercomponent compound 2, relaxation calorimeter, x2 = 0.804 | 0.0482 J/K/mol and 0.0474 J/K/mol
13.23 K, Crystal of intercomponent compound 1, relaxation calorimetry, x2 = 0.81 | 0.0671 J/K/mol
13.23 K, Crystal of intercomponent compound 2, relaxation calorimeter, x2 = 0.804 | 0.0553 J/K/mol
13.24 K, Crystal of intercomponent compound 2, relaxation calorimeter, x2 = 0.804 | 0.0547 J/K/mol
13.94 K, Crystal of intercomponent compound 1, relaxation calorimetry, x2 = 0.81 | 0.0741 J/K/mol
13.94 K, Crystal of intercomponent compound 2, relaxation calorimeter, x2 = 0.804 | 0.0639 J/K/mol
13.95 K, Crystal of intercomponent compound 2, relaxation calorimeter, x2 = 0.804 | 0.0628 J/K/mol
14.69 K, Crystal of intercomponent compound 1, relaxation calorimetry, x2 = 0.81 | 0.083 J/K/mol
14.69 K, Crystal of intercomponent compound 2, relaxation calorimeter, x2 = 0.804 | 0.0753 J/K/mol and 0.0743 J/K/mol
15 K, Crystal of intercomponent compound 1, relaxation calorimetry + DSC, x2 = 0.81 | 0.0895 J/K/mol
15 K, Crystal of intercomponent compound 2, relaxation calorimetry + DSC, x2 = 0.804 | 0.0803 J/K/mol
15.47 K, Crystal of intercomponent compound 1, relaxation calorimetry, x2 = 0.81 | 0.094 J/K/mol
15.47 K, Crystal of intercomponent compound 2, relaxation calorimeter, x2 = 0.804 | 0.0889 J/K/mol
15.48 K, Crystal of intercomponent compound 2, relaxation calorimeter, x2 = 0.804 | 0.0879 J/K/mol
16.3 K, Crystal of intercomponent compound 1, relaxation calorimetry, x2 = 0.81 | 0.1071 J/K/mol
16.3 K, Crystal of intercomponent compound 2, relaxation calorimeter, x2 = 0.804 | 0.1049 J/K/mol
16.31 K, Crystal of intercomponent compound 2, relaxation calorimeter, x2 = 0.804 | 0.1039 J/K/mol
17.17 K, Crystal of intercomponent compound 1, relaxation calorimetry, x2 = 0.81 | 0.1224 J/K/mol
17.18 K, Crystal of intercomponent compound 2, relaxation calorimeter, x2 = 0.804 | 0.1233 J/K/mol and 0.1231 J/K/mol
18.09 K, Crystal of intercomponent compound 1, relaxation calorimetry, x2 = 0.81 | 0.1403 J/K/mol
18.09 K, Crystal of intercomponent compound 2, relaxation calorimeter, x2 = 0.804 | 0.1454 J/K/mol
18.1 K, Crystal of intercomponent compound 2, relaxation calorimeter, x2 = 0.804 | 0.1461 J/K/mol
19.06 K, Crystal of intercomponent compound 1, relaxation calorimetry, x2 = 0.81 | 0.1618 J/K/mol
19.07 K, Crystal of intercomponent compound 2, relaxation calorimeter, x2 = 0.804 | 0.1725 J/K/mol and 0.1731 J/K/mol
20 K, Crystal of intercomponent compound 1, relaxation calorimetry + DSC, x2 = 0.81 | 0.184 J/K/mol
20 K, Crystal of intercomponent compound 2, relaxation calorimetry + DSC, x2 = 0.804 | 0.201 J/K/mol
20.09 K, Crystal of intercomponent compound 1, relaxation calorimetry, x2 = 0.81 | 0.187 J/K/mol
20.09 K, Crystal of intercomponent compound 2, relaxation calorimeter, x2 = 0.804 | 0.205 J/K/mol
20.1 K, Crystal of intercomponent compound 2, relaxation calorimeter, x2 = 0.804 | 0.203 J/K/mol
21.16 K, Crystal of intercomponent compound 1, relaxation calorimetry, x2 = 0.81 | 0.219 J/K/mol
21.16 K, Crystal of intercomponent compound 2, relaxation calorimeter, x2 = 0.804 | 0.24 J/K/mol
21.17 K, Crystal of intercomponent compound 2, relaxation calorimeter, x2 = 0.804 | 0.242 J/K/mol
22.28 K, Crystal of intercomponent compound 1, relaxation calorimetry, x2 = 0.81 | 0.255 J/K/mol
22.3 K, Crystal of intercomponent compound 2, relaxation calorimeter, x2 = 0.804 | 0.283 J/K/mol and 0.286 J/K/mol
23.49 K, Crystal of intercomponent compound 2, relaxation calorimeter, x2 = 0.804 | 0.333 J/K/mol and 0.337 J/K/mol
23.51 K, Crystal of intercomponent compound 1, relaxation calorimetry, x2 = 0.81 | 0.297 J/K/mol
24.74 K, Crystal of intercomponent compound 1, relaxation calorimetry, x2 = 0.81 | 0.331 J/K/mol
24.75 K, Crystal of intercomponent compound 2, relaxation calorimeter, x2 = 0.804 | 0.391 J/K/mol and 0.396 J/K/mol
25 K, Crystal of intercomponent compound 1, relaxation calorimetry + DSC, x2 = 0.81 | 0.347 J/K/mol
25 K, Crystal of intercomponent compound 2, relaxation calorimetry + DSC, x2 = 0.804 | 0.403 J/K/mol
26.07 K, Crystal of intercomponent compound 2, relaxation calorimeter, x2 = 0.804 | 0.458 J/K/mol and 0.454 J/K/mol
26.08 K, Crystal of intercomponent compound 1, relaxation calorimetry, x2 = 0.81 | 0.39 J/K/mol
27.47 K, Crystal of intercomponent compound 2, relaxation calorimeter, x2 = 0.804 | 0.534 J/K/mol
27.48 K, Crystal of intercomponent compound 1, relaxation calorimetry, x2 = 0.81 | 0.457 J/K/mol
27.48 K, Crystal of intercomponent compound 2, relaxation calorimeter, x2 = 0.804 | 0.531 J/K/mol
28.94 K, Crystal of intercomponent compound 2, relaxation calorimeter, x2 = 0.804 | 0.623 J/K/mol
28.95 K, Crystal of intercomponent compound 1, relaxation calorimetry, x2 = 0.81 | 0.534 J/K/mol
28.95 K, Crystal of intercomponent compound 2, relaxation calorimeter, x2 = 0.804 | 0.619 J/K/mol
30 K, Crystal of intercomponent compound 1, relaxation calorimetry + DSC, x2 = 0.81 | 0.596 J/K/mol
30 K, Crystal of intercomponent compound 2, relaxation calorimetry + DSC, x2 = 0.804 | 0.689 J/K/mol
30.48 K, Crystal of intercomponent compound 2, relaxation calorimeter, x2 = 0.804 | 0.723 J/K/mol
30.49 K, Crystal of intercomponent compound 1, relaxation calorimetry, x2 = 0.81 | 0.625 J/K/mol
30.5 K, Crystal of intercomponent compound 2, relaxation calorimeter, x2 = 0.804 | 0.718 J/K/mol
32.11 K, Crystal of intercomponent compound 2, relaxation calorimeter, x2 = 0.804 | 0.835 J/K/mol
32.12 K, Crystal of intercomponent compound 1, relaxation calorimetry, x2 = 0.81 | 0.728 J/K/mol
32.12 K, Crystal of intercomponent compound 2, relaxation calorimeter, x2 = 0.804 | 0.832 J/K/mol
33.83 K, Crystal of intercomponent compound 2, relaxation calorimeter, x2 = 0.804 | 0.964 J/K/mol
33.84 K, Crystal of intercomponent compound 1, relaxation calorimetry, x2 = 0.81 | 0.848 J/K/mol
33.84 K, Crystal of intercomponent compound 2, relaxation calorimeter, x2 = 0.804 | 0.961 J/K/mol
35 K, Crystal of intercomponent compound 1, relaxation calorimetry + DSC, x2 = 0.81 | 0.934 J/K/mol
35 K, Crystal of intercomponent compound 2, relaxation calorimetry + DSC, x2 = 0.804 | 1.056 J/K/mol
35.64 K, Crystal of intercomponent compound 2, relaxation calorimeter, x2 = 0.804 | 1.113 J/K/mol
35.65 K, Crystal of intercomponent compound 2, relaxation calorimeter, x2 = 0.804 | 1.109 J/K/mol
35.66 K, Crystal of intercomponent compound 1, relaxation calorimetry, x2 = 0.81 | 0.987 J/K/mol
37.54 K, Crystal of intercomponent compound 2, relaxation calorimeter, x2 = 0.804 | 1.278 J/K/mol
37.56 K, Crystal of intercomponent compound 1, relaxation calorimetry, x2 = 0.81 | 1.143 J/K/mol
37.56 K, Crystal of intercomponent compound 2, relaxation calorimeter, x2 = 0.804 | 1.272 J/K/mol
39.55 K, Crystal of intercomponent compound 2, relaxation calorimeter, x2 = 0.804 | 1.458 J/K/mol
39.56 K, Crystal of intercomponent compound 1, relaxation calorimetry, x2 = 0.81 | 1.315 J/K/mol
39.57 K, Crystal of intercomponent compound 2, relaxation calorimeter, x2 = 0.804 | 1.455 J/K/mol
40 K, Crystal of intercomponent compound 1, relaxation calorimetry + DSC, x2 = 0.81 | 1.35 J/K/mol
40 K, Crystal of intercomponent compound 2, relaxation calorimetry + DSC, x2 = 0.804 | 1.5 J/K/mol
41.66 K, Crystal of intercomponent compound 2, relaxation calorimeter, x2 = 0.804 | 1.664 J/K/mol
41.67 K, Crystal of intercomponent compound 1, relaxation calorimetry, x2 = 0.81 | 1.513 J/K/mol
41.68 K, Crystal of intercomponent compound 2, relaxation calorimeter, x2 = 0.804 | 1.659 J/K/mol
43.88 K, Crystal of intercomponent compound 1, relaxation calorimetry, x2 = 0.81 | 1.731 J/K/mol
43.89 K, Crystal of intercomponent compound 2, relaxation calorimeter, x2 = 0.804 | 1.888 J/K/mol
43.9 K, Crystal of intercomponent compound 2, relaxation calorimeter, x2 = 0.804 | 1.888 J/K/mol
45 K, Crystal of intercomponent compound 1, relaxation calorimetry + DSC, x2 = 0.81 | 1.85 J/K/mol
45 K, Crystal of intercomponent compound 2, relaxation calorimetry + DSC, x2 = 0.804 | 2.01 J/K/mol
46.22 K, Crystal of intercomponent compound 1, relaxation calorimetry, x2 = 0.81 | 1.98 J/K/mol
